# Assay results as given in patent publication US20160137746A1, “METHODS FOR TREATING HIGH CARDIOVASCULAR RISK PATIENTS WITH HYPERCHOLESTEROLEMIA” (Sanofi Biotechnology, priority 2014, published 2016).
# Several values for one entry are separate records, joined by “and”; a condition that tells them apart may be missing. Equal values may be shown once.
# System: high cardiovascular risk patients with hypercholesterolemia
# Assay: ODYSSEY LONG TERM: lipid efficacy of alirocumab 150 mg Q2W vs placebo
# Type: in vivo, human
# Method: Patients were stratified according to heFH population, prior history of MI or ischemic stroke, statin treatment and geographic region. Patients at high cardiovascular risk were defined as 1) having heFH (who may or may not have CHD/CHD risk equivalents) or 2) no prior diagnosis of heFH but having hypercholesterolemia together with established CHD or CHD risk equivalents.
# Primary analyses of efficacy endpoints were conducted using an ITT approach (based on the ITT population defined above), including all lipid data, regardless of whether the patient was continuing therapy or not. This corresponds to ITT estimands, defined for primary and key secondary endpoints. In addition, analyses were also conducted using an on-treatment approach (based on the mITT population defined above), including lipid data collected during the efficacy treatment period. This corresponds to on-treatment estimands of key secondary endpoints.
# With regards to the primary efficacy analysis (ITT approach), the percent change in calculated LDL-C from baseline to Week 24 was analyzed using a mixed-effect model with repeated measures (MMRM) approach. All post-baseline data available from Week 4 to Week 52 analysis windows were used and missing data were accounted for by the MMRM. […] This model provided baseline adjusted least-squares means (LSmeans) estimates at Week 24 for both treatment groups with their corresponding SEs and 95% confidence intervals.
# Continuous secondary variables anticipated to have a normal distribution (i.e., lipids other than TGs and Lp(a)) were analyzed using the same MMRM model as for the primary endpoint. […] Combined estimate for mean in both treatment groups, as well as the differences of these estimates, with their corresponding SEs, 95% Cls and p-value were provided (through SAS MIANALYZE procedure).
# Binary secondary efficacy endpoints were analyzed using multiple imputation approach for handling of missing values followed by stratified logistic regression with treatment group as main effect and corresponding baseline value(s) as covariate, stratified by randomization factors (as per IVRS). Combined estimates of odds ratio versus placebo, 95% CI, and p-value were provided (through SAS MIANALYZE procedure).
# [1] = Week 24, total PCSK9 levels at or above the median
# [2] = Week 24, total PCSK9 levels below the median
# [3] = Week 24, ITT population, MMRM, alirocumab 150 Q2W
# [4] = subgroup baseline HDL-C <40 mg/dL/<1.04 mmol/L, ITT
# [5] = subgroup baseline HDL-C ≧40 mg/dL/≧1.04 mmol/L, ITT
# [6] = subgroup baseline calculated LDL-C <100 mg/dL/<2.59 mmol/L, ITT
# [7] = subgroup baseline calculated LDL-C ≧160 mg/dL/≧4.14 mmol/L, ITT
# [8] = subgroup baseline calculated LDL-C ≧100 to <130 mg/dL/≧2.59 to <3.37 mmol/L, ITT
# [9] = subgroup baseline calculated LDL-C ≧130 to <160 mg/dL/≧3.37 to <4.14 mmol/L, ITT
substance,measurement,setting,value
"Alirocumab: human anti-PCSK9 antibody; HCVR SEQ ID NO:1, LCVR SEQ ID NO:6; CDRs SEQ ID NOs 2/3/4/7/8/10","Calculated LDL-C percent change, LS mean difference vs placebo","Week 24, men",−64.7%
same,"Calculated LDL-C, LS mean percent change from baseline","Week 24, men",−65.5%
same,"Calculated LDL-C percent change, treatment effect versus placebo","Week 24, patients with baseline LDL-C <100 mg/dL",−75.0%
same,"Calculated LDL-C percent change, treatment effect versus placebo","Week 24, patients with baseline LDL-C ≧160 mg/dL",−41.3%
same,"Calculated LDL-C percent change, LS mean difference vs placebo",[1],−66.0%
same,"Calculated LDL-C, LS mean percent change from baseline",[1],−62.1%
same,"Calculated LDL-C percent change, LS mean difference vs placebo",[2],−57.3%
same,"Calculated LDL-C, LS mean percent change from baseline",[2],−60.1%
same,"Calculated LDL-C percent change, LS mean difference vs placebo","Week 24, women",−56.6%
same,"Calculated LDL-C, LS mean percent change from baseline","Week 24, women",−53.4%
same,"Apo A1, LS mean (SE) change from baseline to Week 24 (%)","Week 24, ITT population",4.0 (0.4) %
same,"Apo B, LS mean (SE) change from baseline to Week 24 (%)","Week 24, ITT population",−52.8 (0.7) %
same,"Fasting triglycerides, combined estimate for adjusted mean (SE) change from baseline to Week 24 (%)","Week 24, ITT population",−15.6 (0.8) %
same,"HDL-C, LS mean (SE) change from baseline to Week 24 (%)","Week 24, ITT population",4.0 (0.4) %
same,"Lipoprotein (a), combined estimate for adjusted mean (SE) change from baseline to Week 24 (%)","Week 24, ITT population",−29.3 (0.7) %
same,"Non-HDL-C, LS mean (SE) change from baseline to Week 24 (%)","Week 24, ITT population",−51.6 (0.6) %
same,Proportion (%) of patients reaching calculated LDL-C levels at Week 24: <70 mg/dL (regardless of risk),"Week 24, ITT population",79.3%
same,Proportion (%) of patients reaching calculated LDL-C levels at Week 24: <70 mg/dL (very high risk) or <100 mg/dL (high risk),"Week 24, ITT population",80.7%
same,"Total cholesterol, LS mean (SE) change from baseline to Week 24 (%)","Week 24, ITT population",−37.8 (0.5) %
same,"Calculated LDL-C Week 24 percent change from baseline, LS mean difference (SE) vs placebo","Week 24, ITT population, MMRM",−61.9 (1.3) %
same,"Calculated LDL-C percent change from baseline, LS mean (SE)",[3],−61.0 (0.7) % and −61.0%
same,"Calculated LDL-C value (absolute level), LS mean (SE)",[3],48.3 (0.9) mg/dL
same,"Calculated LDL-C value, LS mean (SE)",[3],1.252 mmol/L
same,LS mean (SE) change from baseline to Week 24 in measured LDL-C,"Week 24, ITT, LDL-cholesterol measured by beta-quantification",−57.8 (0.8) %
same,"Apo-B - Percent change from baseline to Week 24, LS mean difference vs. placebo","Week 24, On-treatment",placebo of −55.5%
same,"Calculated LDL-C - Percent change from baseline to Week 24, LS mean difference vs. placebo","Week 24, On-treatment",placebo of −63.5%
same,"Non-HDL-C - Percent change from baseline to Week 24, LS mean difference vs. placebo","Week 24, On-treatment",placebo of −53.7%
same,LS mean absolute LDL-C reduction,"Week 24, subgroup baseline calculated LDL-C <100 mg/dL/<2.59 mmol/L, ITT",-51.6 mg/dL
same,LS mean absolute LDL-C reduction,"Week 24, subgroup baseline calculated LDL-C ≧160 mg/dL/≧4.14 mmol/L, ITT",-115.8 mg/dL
same,LS mean absolute LDL-C reduction,"Week 24, subgroup baseline calculated LDL-C ≧100 to <130 mg/dL/≧2.59 to <3.37 mmol/L, ITT",-71.2 mg/dL
same,LS mean absolute LDL-C reduction,"Week 24, subgroup baseline calculated LDL-C ≧130 to <160 mg/dL/≧3.37 to <4.14 mmol/L, ITT",-85.3 mg/dL
same,"Calculated LDL-C percent change from baseline, LS mean (SE)","Week 36, ITT population, MMRM, alirocumab 150 Q2W",−59.5%
same,"Calculated LDL-C percent change from baseline, LS mean (SE)","Week 52, ITT population, MMRM, alirocumab 150 Q2W",−56.8%
same,Additional LDL-C reduction from baseline versus placebo,Week 78,56%
same,Percentage change from baseline to Week 78 in calculated LDL-C,"Week 78, ITT population",−52.4 (0.9) %
same,"Percentage change from baseline to Week 78 in calculated LDL-C, LS mean difference (SE) vs placebo","Week 78, ITT population",−56.0 (1.6) %
same,Percent decrease in LDL cholesterol,"intention-to-treat, Week 24 (final analysis)",61%
same,"Percent change from baseline in calculated LDL-C at week 24, LS mean difference (SE) vs placebo",[4],−66.1 (2.8) %
same,"Percent change from baseline in calculated LDL-C at week 24, LS means (SE)",[4],−65.5 (1.6) %
same,"Percent change from baseline in calculated LDL-C at week 24, LS mean difference (SE) vs placebo",[5],−60.8 (1.4) %
same,"Percent change from baseline in calculated LDL-C at week 24, LS means (SE)",[5],−59.9 (0.8) %
same,"Percent change from baseline in calculated LDL-C at week 24, LS mean difference (SE) vs placebo",[6],−75.0 (2.2) %
same,"Percent change from baseline in calculated LDL-C at week 24, LS means (SE)",[6],−61.3 (1.3) %
same,"Percent change from baseline in calculated LDL-C at week 24, LS mean difference (SE) vs placebo",[7],−41.3 (3.3) %
same,"Percent change from baseline in calculated LDL-C at week 24, LS means (SE)",[7],−59.5 (1.9) %
same,"Percent change from baseline in calculated LDL-C at week 24, LS mean difference (SE) vs placebo",[8],−62.5 (2.0) %
same,"Percent change from baseline in calculated LDL-C at week 24, LS means (SE)",[8],−62.0 (1.2) %
same,"Percent change from baseline in calculated LDL-C at week 24, LS mean difference (SE) vs placebo",[9],−54.6 (2.9) %
same,"Percent change from baseline in calculated LDL-C at week 24, LS means (SE)",[9],−59.8 (1.7) %
